Measured values from patent US20230381176A1, “A PHARMACEUTICAL COMPOSITION AND USE THEREOF FOR TREATMENT OF CANCER” (Ascentage Pharma (Suzhou) Co., Ltd., priority 2020, published 2023).

Key:
[1] = test system: Neuroblastoma SH-SY5Y (ALK F1174L) xenograft; type: in vivo, mouse
Experimental: (§1) A subcutaneous xenograft tumor model of human tumor immunodeficient mice was established by cell inoculation: tumor cells in logarithmic growth phase were collected, counted, resuspended in 1×PBS, and the cell suspension concentration was adjusted to 2.5-5 ×10^7/mL. The tumor cells were inoculated subcutaneously in the right side of immunodeficient mice with a 1 mL syringe ([…]), 5-10×10^6/0.2 mL/mouse. All animal experiments were strictly in accordance with the specifications for the use and management of experimental animals in GenePharma Co., Ltd. and Suzhou Ascentage Pharma Co., Ltd. The calculation of relevant parameters refers to the Chinese NMPA “Guidelines for Non-Clinical Research Techniques of Cytotoxic Anti-tumor Drugs”.
(§2) Animal body weight and tumor size were measured twice weekly during the experiment. The state of the animal and the presence or absence of death were observed every day. The growth of tumor and the effects of treatment on normal behavior of animals were monitored routinely, specifically involving experimental animal activity, feeding and drinking, weight gain or loss, eyes, clothing hair and other abnormalities. The deaths and clinical symptoms observed during the experiment were recorded in the raw data. All operations for administration and measurement of mouse body weight and tumor volume were performed in a clean bench. According to the requirements of the experimental protocol, after the end of the last administration, plasma and tumor tissues were collected, weighed and photographed. The plasma and tumor samples were frozen at −80° C. for ready-to-use.
(§3) Tumor volume (TV) is calculated as: TV=a×b^2/2, wherein a and b represent the length and width of the tumor to be measured, respectively.
(§4) The relative tumor volume (RTV) is calculated as: RTV=Vt/V1, wherein V1 is the tumor volume at the start of grouping and administration, and Vt is the tumor volume measured on the t day after administration.
(§5) The evaluation index of anti-tumor activity is the relative tumor proliferation rate T/C (%), and the calculation formula thereof is: relative tumor proliferation rate T/C (%)=(TRTV/CRTV)×100%, TRTV is the RTV of treatment group, CRTV is the RTV of solvent control group.
(§6) Change of body weight (%)=(measured body weight−body weight at the start of grouping)/body weight at the start of grouping×100%.
(§7) A dose of drug is considered to be severely toxic if the body weight of mouse is reduced by more than 20% or the number of drug-related deaths exceeds 20%.
(§8) According to the description by Clarke R., Issues in experimental design and endpoint analysis in the study of experimental cytotoxic agents in vivo in breast cancer and other models [J]. Breast Cancer Research & Treatment, 1997, 46(2-3): 255-278, synergy analysis was evaluated using the following formula: synergy factor=((A/C)×(B/C))/(AB/C); A=RTV value of drug A alone group; B=RTV value of drug B alone group; C=RTV value of the solvent control group, and AB=RTV value of the A and B combination group.
Use of mRECIST (Gao et al., 2015) measured tumor responses included stable disease (SD), partial tumor regression (PR), and complete regression (CR), determined by comparing tumor volume change at day t to its baseline: tumor volume change (%)=(Vt−V1)/V1. The BestResponse was the minimum value of tumor volume change (%) for t≥10. For each time t, the average of tumor volume changes from t=1 to t was also calculated. BestAvgResponse was defined as the minimum value of this average for t≥10. The criteria for response (mRECIST) were adapted from RECIST criteria (Gao et al., 2015; Therasse et al., 2000) and defined as follows: mCR, BestResponse<−95% and BestAvg Response<−40%; mPR, BestResponse<−50% and BestAvgResponse<−20%; mSD, BestResponse<35% and BestAvgResponse<30%; mPD, not otherwise categorized. SD, PR, and CR were considered responders and used to calculate response rate (%). […] Body weight of animals were monitored simultaneously. […]

ovarian PA-1 xenograft = assay: s.c. ovarian PA-1 xenograft tumor model, Compound 5 and carboplatin; type: in vivo, mouse
Experimental: as §1, §2, §3, §4, §5, §6, §7, §8
Use of mRECIST (Gao et al., 2015) measured tumor responses included stable disease (SD), partial tumor regression (PR), and complete regression (CR), determined by comparing tumor volume change at day t to its baseline: tumor volume change (%)=(Vt−V1)/V1. The BestResponse was the minimum value of tumor volume change (%) for t≥10. For each time t, the average of tumor volume changes from t=1 to t was also calculated. […] Body weight of animals were monitored simultaneously. […]

[2] = test system: OVCAR3 s.c. ovarian xenograft; type: in vivo
Experimental: as §1, §2, §3, §4, §6, §7, §8
Use of mRECIST (Gao et al., 2015) measured tumor responses included stable disease (SD), partial tumor regression (PR), and complete regression (CR), determined by comparing tumor volume change at day t to its baseline: tumor volume change (%)=(Vt−V1)/V1. The BestResponse was the minimum value of tumor volume change (%) for t≥10. For each time t, the average of tumor volume changes from t=1 to t was also calculated. BestAvgResponse was defined as the minimum value of this average for t≥10. The criteria for response (mRECIST) were adapted from RECIST criteria (Gao et al., 2015; Therasse et al., 2000) and defined as follows: mCR, BestResponse<−95% and BestAvg Response<−40%; mPR, BestResponse<−50% and BestAvgResponse<−20%; mSD, BestResponse<35% and BestAvgResponse<30%; mPD, not otherwise categorized. SD, PR, and CR were considered responders and used to calculate response rate (%). […] Body weight of animals were monitored simultaneously. The change in body weight was calculated based on the animal weight of the first day of dosing (day 1). Tumor volume and changes in body weight (%) were represented as the mean±standard error of the mean (SEM).

[3] = test system: U-87-MG subcutaneous glioblastoma; assay: U-87-MG subcutaneous glioblastoma model, Compound 5 and Palbociclib; type: in vivo
Experimental: In this experiment, a U-87-MG subcutaneous glioblastoma model (Wuxi Pharma Tech) was established to evaluate the anti-tumor effect of Compound 5 in combination with Palbociclib/Trametinib/TMZ. The dosing regimen was as follows: • Compound 5: 100 mg/kg, PO QD 21 D; • Palbociclib: 20mg/kg,QD QD 21 D, • Trametinib: 0.5 mg/kg QD QD 21 D, • TMZ 50 mg/kg QD QD 21 D, The dosing regimen of each drug in the dosing regimen for the combination is the same as the dosing regimen for the single drug. [table]

[4] = Compound 5 50 mg/kg, ribociclib 75 mg/kg, orally once per day, 21 days
[5] = Compound 5 100 mg/kg orally once per day 21 days, carboplatin 50 mg/kg i.p. once on Day 1
[6] = Compound 5 100 mg/kg orally once per day, paclitaxel 10 mg/kg i.v. once a week, carboplatin 30 mg/kg i.v. once a week
[7] = Compound 5 100 mg/kg PO QD, Palbociclib 20 mg/kg QD

Structure (SMILES): Cc1cc(Nc2ncc(Cl)c(Nc3ccccc3S(=O)(=O)C(C)C)n2)c(OC(C)C)cc1C1=CCN(C2CCOCC2)CC1 [Compound 5, 5-chloro-N^2-(2-isopropoxy-5-methyl-4-(1-(tetrahydro-2H-pyran-4-yl)-1,2,3,6-tetrahydropyridin-4-yl)phenyl)-N^4-(2-(isopropylsulfonyl)phenyl)pyrimidine-2,4-diamine]
- RTV on Day 21 after administration (mean ± standard error) [1, 4]: 1.79 ± 0.22
- T/C on Day 21 after administration (%) [1, 4]: 6.74%
- mRECIST on Day 21 after administration ([1]; Day 21, animals per class): 2/5 SD, 3/5 PD
- Disease control rate ([1]; based on mRECIST): 2/5 PD (60%)
- antitumor activity (conclusion in words) ([1]; mouse, in vivo): strong antitumor activity
- body weight loss ([1]; mouse, in vivo): less than 10%
- RTV on Day 22 after administration (mean ± standard error) (ovarian PA-1 xenograft; [5]): 10.0 ± 1.0
- T/C on Day 22 after administration (%) (ovarian PA-1 xenograft; [5]): 62.89%
- antitumor activity (conclusion in words) (ovarian PA-1 xenograft; mouse, in vivo): moderate antitumor activity
- RTV on Day 35 after administration (mean ± standard error) [2, 6]: 13.66 ± 2.88
- T/C on Day 35 after administration (%) [2, 6]: 85.04%
- mRECIST ([2]; animals per class): 5/5 PD
- antitumor activity (conclusion in words) ([2]; mouse, in vivo): minor antitumor activity
- Overall regression rate (ORR), % ([2]; proportion of animals with CR or PR): 0%
- Disease control rate (DCR), % ([2]; proportion of animals with CR, PR or SD): 0%
- RTV @ D15 [3, 7]: 18.1 ± 1.1
- T/C (%) @ D15 [3, 7]: 120.7%
- mRECIST ([3]; animals per class): 5/5 PD
- antitumor activity (conclusion in words) ([3]; in vivo): no antitumor activity
